Data set [1] deals with T1, human GIP receptor (Homo sapiens, UniProt P48546).
T1 construct: host or cells: COS-7, transient transfection (calcium phosphate), cDNA in pCMV-Script
T1 sequence (P48546 22-466): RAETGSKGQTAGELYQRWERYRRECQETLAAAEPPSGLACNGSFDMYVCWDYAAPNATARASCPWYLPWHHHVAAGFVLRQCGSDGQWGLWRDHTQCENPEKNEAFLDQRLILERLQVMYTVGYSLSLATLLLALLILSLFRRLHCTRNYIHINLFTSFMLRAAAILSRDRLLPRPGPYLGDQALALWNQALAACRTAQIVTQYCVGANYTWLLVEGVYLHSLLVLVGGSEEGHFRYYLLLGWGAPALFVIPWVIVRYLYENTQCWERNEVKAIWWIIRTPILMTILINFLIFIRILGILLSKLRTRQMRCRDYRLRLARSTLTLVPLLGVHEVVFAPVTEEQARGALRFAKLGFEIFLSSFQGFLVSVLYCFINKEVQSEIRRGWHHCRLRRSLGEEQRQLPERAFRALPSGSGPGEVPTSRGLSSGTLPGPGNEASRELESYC
Put plainly: cAMP accumulation assay, agonism (ligand alone). It counts as cell-based. The note with it: Table 1; for Emax: COS-7, intrinsic cAMP activity, COS-7 cells; for EC50: given as log EC50 (negative sign), read-out: cAMP agonism EC50 (log) (converted). A general note: Changes in cAMP serve as a functional read-out for many G protein-coupled receptors.

Data set [2] deals with T1, human GIP receptor. Put plainly: 125I-human GIP competition binding assay, in the presence and absence of 2% HSA.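 On all read-outs here: nonspecific binding taken as radioligand bound to untransfected cells, IC50 obtained from nonlinear regression fits.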 To be noted: for Fold change HSA (2%)/Casein (0.1%): IC50 (plus HSA)/IC50 (minus HSA); for Binding (+/−HSA) Fold: fold change +HSA/−HSA; for pIC50: read-out: Binding.
The target in data set [3] is T1, human GIP receptor. Nature of the data set: cAMP accumulation assay, antagonism of a GIP-mediated cAMP response (50-80% of max). The class given is cell-based. The note with it: for Fold change of IC50 versus GIP(5-30)NH2: fold change of IC50 from GIP(5-30)NH2; for IC50: transiently transfected COS-7 cells, Table 1 and text, read-out: cAMP antagonism nM (IC50, antagonistic potency). How it is done:
The day after, the cells were washed twice with Hepes buffered saline (HBS) buffer and incubated with HBS and 1 mM 3-isobutyl-1-methylxanthine (IBMX) for 30 min at 37° C. […] The HitHunter™ cAMP XS assay (DiscoveRx) was carried out according to the manufacturer's instructions.

[4] abbreviates: heterologous competition binding, transiently transfected COS-7 cells expressing the human GIP receptor.
Setting [5] is: binding in 0.1% casein (absence of HSA), log value, read-out: logIC50 0.1% casein (converted).

pIC50: −log10 of the molar value. Several values for one entry are separate records, joined by “and”; a condition that tells them apart may be missing. Equal values may be shown once. Peptide text beside a SMILES is read from it. * marks the point of attachment. C16 diacid = O=C(O)CCCCCCCCCCCCCCC(=O)*

For `CC[C@H](C)[C@H](NC(=O)[C@H](CO)NC(=O)[C@H](Cc1ccc(O)cc1)NC(=O)[C@H](CC(=O)O)NC(=O)[C@H](CO)NC(=O)[C@@H](NC(=O)[C@H](Cc1ccccc1)NC(=O)[C@@H](N)[C@@H](C)O)[C@@H](C)CC)C(=O)N[C@@H](C)C(=O)N[C@@H](CCSC)C(=O)N[C@@H](CC(=O)O)C(=O)N[C@@H](CCCCN)C(=O)N[C@H](C(=O)N[C@@H](Cc1c[nH]cn1)C(=O)N[C@@H](CCC(N)=O)C(=O)N[C@@H](CCC(N)=O)C(=O)N[C@@H](CC(=O)O)C(=O)N[C@@H](Cc1ccccc1)C(=O)N[C@H](C(=O)N[C@@H](CC(N)=O)C(=O)N[C@@H](Cc1c[nH]c2ccccc12)C(=O)N[C@@H](CC(C)C)C(=O)N[C@@H](CC(C)C)C(=O)N[C@@H](C)C(=O)N[C@@H](CCCCNC(=O)CCCCCCCCCCCCCCC(=O)O)C(=O)N[C@@H](CCCCN)C(N)=O)C(C)C)[C@@H](C)CC` [AT189, [hGIP(5-30)NH2[Q29K]-C16diacid/29]] (H-TFISDYSIAMDKIHQQDFVNWLLAK(C16 diacid)K-NH2; N-terminus assumed), at human GIP receptor [1], the Emax worked out at 12%; the concentration giving a half-maximal response (EC50) is 100 nM and 79.4 nM. At human GIP receptor [2], the “Fold change HSA (2%)/Casein (0.1%)” value turned out to be 3.2 and the “Binding (+/−HSA) Fold” value was 3.2. For the same compound, the IC50 at human GIP receptor [2] (heterologous competition binding, transiently transfected COS-7 cells expressing the human GIP receptor, log value of the nM column, read-out: Binding log (converted)) is 126 nM and 118 nM. For the same compound, at human GIP receptor [3], the “Fold change of IC50 versus GIP(5-30)NH2” value is listed as 3.0 and the IC50 turned out to be 79 nM.

Consider `CC[C@H](C)[C@H](NC(=O)[C@H](CO)NC(=O)[C@H](Cc1ccc(O)cc1)NC(=O)[C@H](CC(=O)O)NC(=O)[C@H](CO)NC(=O)[C@@H](NC(=O)[C@H](Cc1ccccc1)NC(=O)[C@@H](N)[C@@H](C)O)[C@@H](C)CC)C(=O)N[C@@H](C)C(=O)N[C@@H](CCSC)C(=O)N[C@@H](CC(=O)O)C(=O)N[C@@H](CCCCN)C(=O)N[C@H](C(=O)N[C@@H](Cc1c[nH]cn1)C(=O)N[C@@H](CCCCNC(=O)CCCCCCCCCCCCCCC(=O)O)C(=O)N[C@@H](CCC(N)=O)C(=O)N[C@@H](CC(=O)O)C(=O)N[C@@H](Cc1ccccc1)C(=O)N[C@H](C(=O)N[C@@H](CC(N)=O)C(=O)N[C@@H](Cc1c[nH]c2ccccc12)C(=O)N[C@@H](CC(C)C)C(=O)N[C@@H](CC(C)C)C(=O)N[C@@H](C)C(=O)N[C@@H](CCC(N)=O)C(=O)N[C@@H](CCCCN)C(N)=O)C(C)C)[C@@H](C)CC` [AT179, [hGIP(5-30)NH2[Q19K]-C16diacid/19]] (H-TFISDYSIAMDKIHK(C16 diacid)QDFVNWLLAQK-NH2; N-terminus assumed), for which, on human GIP receptor [1], the Emax was 32% and the EC50 was 100 nM. For the same compound, on human GIP receptor [2], the “Fold change HSA (2%)/Casein (0.1%)” value stood at 3.6 and the “Binding (+/−HSA) Fold” value was 6.3. Also, the Ki on human GIP receptor [2] (presence of 2% HSA) was determined as 2380 nM. At human GIP receptor [3], the “Fold change of IC50 versus GIP(5-30)NH2” value is listed as 2.1 and the IC50 was 89 nM.

Regarding `CC[C@H](C)[C@H](NC(=O)[C@H](CO)NC(=O)[C@H](Cc1ccc(O)cc1)NC(=O)[C@H](CC(=O)O)NC(=O)[C@H](CO)NC(=O)[C@@H](NC(=O)[C@H](Cc1ccccc1)NC(=O)[C@@H](N)[C@@H](C)O)[C@@H](C)CC)C(=O)N[C@@H](C)C(=O)N[C@@H](CCSC)C(=O)N[C@@H](CCCCNC(=O)CCCCCCCCCCCCCCC(=O)O)C(=O)N[C@@H](CCCCN)C(=O)N[C@H](C(=O)N[C@@H](Cc1c[nH]cn1)C(=O)N[C@@H](CCC(N)=O)C(=O)N[C@@H](CCC(N)=O)C(=O)N[C@@H](CC(=O)O)C(=O)N[C@@H](Cc1ccccc1)C(=O)N[C@H](C(=O)N[C@@H](CC(N)=O)C(=O)N[C@@H](Cc1c[nH]c2ccccc12)C(=O)N[C@@H](CC(C)C)C(=O)N[C@@H](CC(C)C)C(=O)N[C@@H](C)C(=O)N[C@@H](CCC(N)=O)C(=O)N[C@@H](CCCCN)C(N)=O)C(C)C)[C@@H](C)CC` [AT177, [hGIP(5-30)NH2[D15K]-C16diacid/15]] (H-TFISDYSIAMK(C16 diacid)KIHQQDFVNWLLAQK-NH2; N-terminus assumed), on human GIP receptor [1], the Emax turned out to be 30% and the EC50 was 100 nM. In addition, on human GIP receptor [2], the “Fold change HSA (2%)/Casein (0.1%)” value is 3.8 and the “Binding (+/−HSA) Fold” value is reported as 3.8. Also, on human GIP receptor [2] (absence of HSA), the Ki is 117 nM. In addition, the pIC50 on human GIP receptor [2] (setting [4]) was 6.87. Besides, on human GIP receptor [3], the “Fold change of IC50 versus GIP(5-30)NH2” value turned out to be 1.3 and the IC50 stood at 59 nM.

The compound `CC[C@H](C)[C@H](NC(=O)[C@H](CCCCN)NC(=O)[C@H](CC(=O)O)NC(=O)[C@H](CCSC)NC(=O)[C@H](C)NC(=O)[C@H](CCCCNC(=O)CCCCCCCCCCCCCCC(=O)O)NC(=O)[C@H](CO)NC(=O)[C@H](Cc1ccc(O)cc1)NC(=O)[C@H](CC(=O)O)NC(=O)[C@H](CO)NC(=O)[C@@H](NC(=O)[C@H](Cc1ccccc1)NC(=O)[C@@H](N)[C@@H](C)O)[C@@H](C)CC)C(=O)N[C@@H](Cc1c[nH]cn1)C(=O)N[C@@H](CCC(N)=O)C(=O)N[C@@H](CCC(N)=O)C(=O)N[C@@H](CC(=O)O)C(=O)N[C@@H](Cc1ccccc1)C(=O)N[C@H](C(=O)N[C@@H](CC(N)=O)C(=O)N[C@@H](Cc1c[nH]c2ccccc12)C(=O)N[C@@H](CC(C)C)C(=O)N[C@@H](CC(C)C)C(=O)N[C@@H](C)C(=O)N[C@@H](CCC(N)=O)C(=O)N[C@@H](CCCCN)C(N)=O)C(C)C` [AT174, [hGIP(5-30)NH2[I12K]-C16diacid/12]] (H-TFISDYSK(C16 diacid)AMDKIHQQDFVNWLLAQK-NH2; N-terminus assumed) showed an Emax on human GIP receptor [1] of 0%. Also, at human GIP receptor [2], the “Fold change HSA (2%)/Casein (0.1%)” value is 3.5 and the “Binding (+/−HSA) Fold” value was 6.1. Moreover, the IC50 at human GIP receptor [2] (setting [5]) was 79.4 nM. The pIC50 on human GIP receptor [2] (setting [4]) is 7.10. Further, at human GIP receptor [3], the “Ability to antagonize the GIP-mediated cAMP response (in words)” value was “highest antagonistic potencies” and the “Fold change of IC50 versus GIP(5-30)NH2” value worked out at 0.9.

`CCCCCCCCCCCC(=O)NCCCC[C@H](NC(=O)[C@H](CC(=O)O)NC(=O)[C@H](CCSC)NC(=O)[C@H](C)NC(=O)[C@@H](NC(=O)[C@H](CO)NC(=O)[C@H](Cc1ccc(O)cc1)NC(=O)[C@H](CC(=O)O)NC(=O)[C@H](CO)NC(=O)[C@@H](NC(=O)[C@H](Cc1ccccc1)NC(=O)[C@@H](N)[C@@H](C)O)[C@@H](C)CC)[C@@H](C)CC)C(=O)N[C@H](C(=O)N[C@@H](Cc1c[nH]cn1)C(=O)N[C@@H](CCC(N)=O)C(=O)N[C@@H](CCC(N)=O)C(=O)N[C@@H](CC(=O)O)C(=O)N[C@@H](Cc1ccccc1)C(=O)N[C@H](C(=O)N[C@@H](CC(N)=O)C(=O)N[C@@H](Cc1c[nH]c2ccccc12)C(=O)N[C@@H](CC(C)C)C(=O)N[C@@H](CC(C)C)C(=O)N[C@@H](C)C(=O)N[C@@H](CCC(N)=O)C(=O)N[C@@H](CCCCN)C(N)=O)C(C)C)[C@@H](C)CC` [AT119, [hGIP(5-30)NH2—C12/16]] yielded an Emax on human GIP receptor [1] of 0%. On human GIP receptor [2], the “Fold change HSA (2%)/Casein (0.1%)” value is given as 7.2. For the same compound, the IC50 on human GIP receptor [2] (setting [5]) is 398 nM; at human GIP receptor [3] it was 26 nM.

On human GIP receptor [1], `CC[C@H](C)[C@H](NC(=O)[C@H](CO)NC(=O)[C@H](Cc1ccc(O)cc1)NC(=O)[C@H](CC(=O)O)NC(=O)[C@H](CO)NC(=O)[C@H](CCCCNC(=O)CCCCCCCCCCCCCCC(=O)O)NC(=O)[C@H](Cc1ccccc1)NC(=O)[C@@H](N)[C@@H](C)O)C(=O)N[C@@H](C)C(=O)N[C@@H](CCSC)C(=O)N[C@@H](CC(=O)O)C(=O)N[C@@H](CCCCN)C(=O)N[C@H](C(=O)N[C@@H](Cc1c[nH]cn1)C(=O)N[C@@H](CCC(N)=O)C(=O)N[C@@H](CCC(N)=O)C(=O)N[C@@H](CC(=O)O)C(=O)N[C@@H](Cc1ccccc1)C(=O)N[C@H](C(=O)N[C@@H](CC(N)=O)C(=O)N[C@@H](Cc1c[nH]c2ccccc12)C(=O)N[C@@H](CC(C)C)C(=O)N[C@@H](CC(C)C)C(=O)N[C@@H](C)C(=O)N[C@@H](CCC(N)=O)C(=O)N[C@@H](CCCCN)C(N)=O)C(C)C)[C@@H](C)CC` [AT169, [hGIP(5-30)NH2[I7K]-C16diacid/7]] displayed an Emax of 0%. In addition, on human GIP receptor [2], the “Fold change HSA (2%)/Casein (0.1%)” value came to 5.8 and the “Binding (+/−HSA) Fold” value was found to be 4.8. In addition, on human GIP receptor [2] (setting [5]), the IC50 was 31.6 nM. Also, on human GIP receptor [2] (binding in presence of 2% HSA, read-out: logIC50 2% HSA (converted)), the IC50 is 166 nM. At human GIP receptor [2] (setting [4]), the pIC50 was 7.55. Further, the Ki on human GIP receptor [2] (presence of 2% HSA) amounted to 126 nM. Further, the “Fold change in affinity, IC50 (plus HSA)/IC50 (minus HSA)” value at human GIP receptor [2] (presence vs absence of 2% HSA, proxy for albumin binding) amounted to 5.8 fold. In addition, on human GIP receptor [3], the “Fold change of IC50 versus GIP(5-30)NH2” value was 3.0 and the IC50 was 37 nM.

As usually defined, the Emax is the maximal effect, on the per cent scale that the assay sets. In general, EC50 refers to the concentration giving half of the maximal effect. Broadly, the Ki is the dissociation constant of the complex between target and ligand, obtained from inhibition or displacement.
